Measured values taken from patent US8841073B2, “Methods for identifying RNA segments bound by RNA-binding proteins or ribonucleoprotein complexes” (The Rockefeller University, priority 2008, dated 2014).
Blank lines part the entries; values can stand above or below the compound they belong to. [4sU] = 4-thiouridine

Key:
[1] = molecular target: T1, FLAG/HA-tagged RBP IGF2BP1 (Homo sapiens, UniProt Q9NZI8); test: UV 365 nm crosslinking of RNA to FLAG/HA-IGF2BP1 in cells cultured with photoreactive nucleoside (IP, 32P-labeling, SDS gel phosphorimaging); type: cell-based; details: 100 μM photoreactive nucleoside, 365 nm UV
T1 construct: expressed in transfected cells; host or cells: Flp-In T-REx HEK293 (Invitrogen), pFRT/TO/FLAG/HA-DEST, doxycycline-induced
Protocol: FIG. 1. PURE-CLIP methodology. A Structure of photoreactive nucleosides. B Incorporation of photoreactive nucleosides to enable UV 365 nm crosslinking of RNA to RNA-binding IGF2BP1 protein. Upper panels show phosphorimages of SDS protein gels resolving 5′-32P-labeled RNA-FLAG/HA-IGF2BP1 immunoprecipitates (IPs) prepared from lysates from cells that were cultured in media in the absence or presence of 100 μM photoreactive nucleoside for 12 hrs and crosslinked with 365 nm UV. For comparison, a sample prepared from cells crosslinked at 254 nm, was included. Lower panels show immunoblots probed with an anti-HA antibody confirming uniform gel loading. C Illustration of the method. […]
Incorporation of modified photoreactive nucleoside analogues into RNA facilitates UV crosslinking to RBPs (Meisenheimer and Koch, 1997), as shown previously for in vitro transcribed site-specifically labeled RNAs (Kirino and Mourelatos, 2008; Moore and Query, 1998). Several of these photoreactive nucleosides are excitable by longer wavelength UV (>300 nm) and are readily taken up by cells, where they are incorporated into nascent transcripts without noticeable toxicity and then can be used for in vivo crosslinking (Bezerra and Favre, 1990; Favre et al., 1986; Wagenmakers et al., 1980). […]

[2] = test system: cells; details: exposure longer than 24 hrs in culture medium; cited from earlier work
[3] = molecular target: T2, recombinant QKI protein (Homo sapiens, UniProt Q96PU8); test: UV 365 nm crosslinking of synthetic 4SU-containing oligoribonucleotides to recombinant QKI; type: biochemical; details: 4SU at position 2 vs position 3 of the recognition element
T2 construct: His6 (N); made in house; host or cells: E. coli STAR(DE3)
T2 sequence (Q96PU8 1-319 isoform Q96PU8-9): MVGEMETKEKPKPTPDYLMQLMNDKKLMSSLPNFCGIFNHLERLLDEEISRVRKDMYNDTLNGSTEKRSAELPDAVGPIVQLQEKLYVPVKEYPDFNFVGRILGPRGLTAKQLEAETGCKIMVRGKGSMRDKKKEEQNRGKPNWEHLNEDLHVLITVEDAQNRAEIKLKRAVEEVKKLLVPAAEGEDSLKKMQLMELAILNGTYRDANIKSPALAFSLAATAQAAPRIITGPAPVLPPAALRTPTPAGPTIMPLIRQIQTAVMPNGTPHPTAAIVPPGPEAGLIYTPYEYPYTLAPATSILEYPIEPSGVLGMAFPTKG
Text: FIG. 3. RNA recognition sites of QKI protein. A Domain structure of QKI protein. B Phosphorimage of SDS polyacrylamide gel resolving radiolabeled RNA crosslinked to FLAG/HA-QKI IPs from non-irradiated or UV-irradiated 4SU-labeled cells. […] C Two alignments of PURE-CLIP cDNA sequence reads to the corresponding regions of the 3′UTRs of the Refseq CTNNB1 and HOXD13 transcripts, respectively. Red bars indicate the QKI recognition motif and red-letter nucleotides indicate T to C sequence changes. D Weblogo of the QKI recognition motif generated by PhyloGibbs analysis of the top 100 sequence read clusters. […] F Sequences of synthetic 4SU-labeled oligoribonucleotides with QKI recognition motifs, derived from a sequence read cluster aligning to the 3′UTR of HOXD13 (see c). […]
To better understand the […] sequence conversion after sequencing of crosslinked RNA segments, we subjected synthetic 4SU-containing oligoribonucleotides together with recombinant QKI to UV 365 nm crosslinking (FIGS. 3F, G). […] RNA-binding to recombinant QKI protein was unaffected by 4SU incorporation at U9 or U10 as determined by gel-shift analysis (FIG. 11A-B), whereas regular mutation of the recognition element weakened the binding (FIG. 11C). […]

[4] = molecular target: T3, recombinant His6-QKI protein (Homo sapiens, UniProt Q96PU8); test: Electrophoretic mobility shift assay (gel-shift) with recombinant QKI; type: binding
T3 construct: His6 (N); made in house; host or cells: E. coli STAR(DE3)
T3 sequence (Q96PU8 1-319 isoform Q96PU8-9): T2 sequence (Q96PU8 1-319 isoform Q96PU8-9)
Protocol: FIG. 11: Electrophoretic mobility shift assay (EMSA) to analyze binding of recombinant QKI to synthetic oligoribonucleotides with a sequence derived from a cluster identified by QKI PURE-CLIP. […] C Mutation of either one of the QKI binding sites (marked with red bars in the RNA-sequence) results in decreased affinity of QKI to the RNA. Mutation of both binding sites leads to complete loss of affinity of QKI to the RNA.
Radiolabeled RNA (1 nM) was incubated with recombinant His6-QKI protein at various concentrations and 100 ng tRNA in 20 μl of 20 mM HEPES-KOH, pH 7.4, 330 mM KCl, 10 mM MgCl2, 0.1 mM EDTA and 0.01% IGEPAL CA630 (Sigma). After addition of 6 μl loading dye (40% glycerol, bromophenol blue in binding buffer), the solution was loaded onto a native 10% acrylamide gel containing 0.5×TBE, running at 200 V for 2 h at room temperature, using 0.5×TBE as running buffer. The protein-bound RNA and the free RNA were quantified using a phosphorimager.

[5] = test system: transcripts containing miR-7- or miR-124-specific CCRs; test: miR-7 and miR-124 duplex transfection into HEK293 cells, mRNA stability by Affymetrix microarrays; type: cell-based, human; details: HEK293 cells stably expressing FLAG/HA-AGO2
Text: To allow for a comparison to such studies, we transfected miRNA duplexes corresponding to the deeply conserved miR-7 and miR-124 into HEK293 cells stably expressing FLAG/HA-AGO2 and performed PURE-CLIP. Before transfection, these miRNAs were only present in trace amounts in HEK293 cells, less than 0.2% of total miRNA abundance. We found 1,866 unique sequence read clusters in the miR-7 and 10,929 in the miR-124 transfection experiments. The CCRs isolated from miR-7 and miR-124 transfection experiments were enriched for the seed sequences of the transfected miRNA duplexes. These CCRs were predominantly exonic (87 and 88%, respectively), 28% mapped to the CDS, 57 and 59%, respectively, to the 3′UTR of mRNAs and only 3 and 2%, respectively, to the 5′UTR. miR-7 and miR-124 binding sites that were located in the CDS for miR-7 and -124 were also embedded in regions with unusual codon bias, similar to the binding sites of endogenous miRNA target sites (FIG. 31).
The change in mRNA stability was analyzed after miRNA duplex transfection by Affymetrix whole genome microarrays (Hausser et al., submitted). We observed that transcripts containing miR-7- or miR-124-specific CCRs were destabilized upon miRNA delivery, especially for transcripts with CCRs located in the 3′UTR (FIG. 32-33). […]

T1 sequence (Q9NZI8 whole entry): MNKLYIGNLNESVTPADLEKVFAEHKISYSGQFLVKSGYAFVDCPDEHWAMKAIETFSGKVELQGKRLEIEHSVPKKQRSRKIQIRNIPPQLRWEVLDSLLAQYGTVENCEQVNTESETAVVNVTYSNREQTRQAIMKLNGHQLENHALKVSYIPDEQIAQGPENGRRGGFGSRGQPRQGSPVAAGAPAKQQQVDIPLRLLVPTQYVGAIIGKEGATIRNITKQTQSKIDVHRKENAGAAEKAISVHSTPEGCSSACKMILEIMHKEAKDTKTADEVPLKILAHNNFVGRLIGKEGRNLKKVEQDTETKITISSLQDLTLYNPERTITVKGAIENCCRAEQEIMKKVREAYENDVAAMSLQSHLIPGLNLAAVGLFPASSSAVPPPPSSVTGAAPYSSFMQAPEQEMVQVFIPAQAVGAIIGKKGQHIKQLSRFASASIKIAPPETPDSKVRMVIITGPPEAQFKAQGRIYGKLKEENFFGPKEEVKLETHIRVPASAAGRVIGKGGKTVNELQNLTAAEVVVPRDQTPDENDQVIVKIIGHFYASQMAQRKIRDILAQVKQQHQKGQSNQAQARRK

crosslinking efficiency of nucleoside-labeled RNA to IGF2BP1 [1]: crosslinked most efficiently
Compound: O=c1[nH]c(=S)ccn1[C@@H]1O[C@H](CO)[C@@H](O)[C@H]1O [4SU, 4-thiouridine]

Compound: Nc1nc2c(ncn2[C@@H]2O[C@H](CO)[C@@H](O)[C@H]2O)c(=S)[nH]1 [6SG, 6-thioguanosine]
concentration above which cytotoxicity is noticeable [2]: above 100 μM

Compound: U9: synthetic oligoribonucleotide with 4SU at position 2 of the QKI recognition element; GUAUGCCA(4sU)AACAAAUUCAUUAACAA (SEQ ID NO: 30) (GUAUGCCAUAACAAAUUCAUUAACAA; RNA, [4sU] at 9, backbone not given here)
crosslinking efficiency to recombinant QKI relative to oligonucleotide U10 [3]: approximately 50 times
RNA-binding / affinity to recombinant QKI by gel-shift analysis [4]: unaffected

Compound: miR-7: transfected miRNA duplex, 5'-UGGAAGACUAGUGAUUUUGUUGU / 5'-CAACAAAUCACAGUCUGCCAUA (SEQ ID NO: 66, 67) (listed as RNA, chemistry not given here)
change in mRNA stability of CCR-containing transcripts after miRNA duplex transfection [5]: destabilized
